From patent US10414798B2, “Cancer stem cell targeting peptide and use thereof” (AGRICULTURAL TECHNOLOGY RESEARCH INSTITUTE, priority 2015, dated 2019)
“Also recorded” adds a separate entry of the source.

Key:
[1] = Glycan microarray analysis; type: binding; details: biotin-CSC HP, Cy3-streptavidin
Description: (§1) N-terminus biotin conjugated CSC HPs with the sequences listed in Table A below were synthesized by GeneDirex with purities higher than 95%. Biotin-CSC HPs were dissolved in DMSO to prepare 10 mg/mL stocks.
Glycan Array 100 microchips (Cat. # GA-Glycan-100) were purchased from RayBiotech and were processed following the manufacturer's instruction with some modifications. Briefly, after blocking with 400 μL Sample Diluent (Item E) at room temperature for 30 minutes, the biotin conjugated CSC HPs were diluted to 1 μg/400 μL with Sample Diluent, and hybridization reactions were carried out at room temperature for 2 hours. After washing, 400 μL of 1×Cy3-conjugated streptavidin was added to each well. The incubation chamber was covered with the plastic adhesive strips and the slide was covered with aluminum foil to avoid exposure to light during incubating in a dark room. The slide was incubated with Cy3-conjugated streptavidin at room temperature for 1 hour with gentle rocking or shaking. After thorough washing, the slide was drained completely, and the fluorescent signals on it were read by laser scanner Axon GenePix. The relative intensity on glycan X was defined as (average of X−negative control)/(positive control−negative control)×100%.
The CSC HPs developed could distinguish CSCs from CCs, and this phenomenon was found cross-species between human and mouse. It was very interesting to figure out the targets of these CSC HPs. There were no detectable fluorescent signals of FITC-CSC HPs remaining on the nitrocellulose membrane that had been blotted with CSC membrane proteins separated by SDS PAGE (data not shown). Glycan microarray (Glycan Array 100 microchips), on which 100 kinds of oligosaccharides were spotted 4 times, was utilized to analyze the possibilities of the interactions between oligosaccharides and CSC HPs. Biotin-CSC HPs as listed in Table 2 were hybridized with glycans on chips. The biotin-CSC HPs trapped on the chips were explored with Cy3-conjugated streptavidin, and the fluorescent signals on it were read by a laser scanner. Two major patterns were illustrated in FIGS. 3A-3F. The first one included glycan 16 (Gal-β-1,4-Glc-β-), 18 (Gal-α-1,4-Gal-β-1,4-Glc-β-), and 26 (GalNAc-β-1,3-Gal-α-1,4-Gal-β-1,4-Glc-β-) Globo series (FIG. 3A). Typical cases were CSC HP-1 and CHC HP-hP1 (FIG. 3C). […] The typical cases were CSC HP5, CSC HP6, CSC HP7, and CSC HP9 (FIG. 3C). Two malignancy and metastasis glycan markers, glycan 63 (Fuc-α-1,2-Gal-β-1,4-(Fuc-α-1,3)-GlcNAc-β-, also called Lewis Y epitope) and glycan 69 (Neu5Ac-α-2,6-Gal-β-1,3-(Neu5Ac-α-2,6)-GalNAc-β-), were also detected. […] Both of the two Neu5Ac-α-2,6-residues were necessary for CSC HPs binding (FIG. 3E).

[2] = test system: cancer cells (CCs); test: Parallel CC experiments with labeled CSC HPs; type: binding, mouse; details: N-terminal rhodamine B or fluorescein conjugate, fluorescence
Description: (§2) 20 μg/mL of Rhodamine B labeled CSC HP1 (Rd-CSC HP-1) and CSC HP2 (Rd-CSC HP-2) as well as FITC labeled CSC HP11 (FITC-CSC HP-11) were directly used to stain EMT6 CSCs and CCs. Cells were counter-stained with DAPI.
(§3) According to the results above, CSC HP-1, CSC HP-2, CSC HP-3, CSC HP-8, CSC HP-9, CSC HP-10, and CSC HP-11 were selected and chemically synthesized with N-terminal conjugation with rhodamine B or fluorescein. […] It was of interest to determine whether these CSC HPs derived from mouse cancers could recognize human CSCs.

[3] = test system: PANC-1 CSCs; test: Staining of tumorospheres with rhodamine B or fluorescein labeled CSC HPs; type: binding, human; details: N-terminal rhodamine B or fluorescein conjugate, fluorescence
Description: [The procedure below names another cell line; the source lists this cell line under the same test.] as §2, §3

[4] = test system: CT26 CSCs; test: Staining of CSCs with rhodamine B or fluorescein labeled CSC HPs; type: binding, mouse; details: N-terminal rhodamine B or fluorescein conjugate, fluorescence
Description: [The procedure below names another cell line; the source lists this cell line under the same test.] as §2, §3

[5] = test system: EMT6 CSCs; test: as above; type: binding, mouse; details: N-terminal rhodamine B or fluorescein conjugate, fluorescence
Description: as §2, §3

[6] = test system: Hepa1-6 CSCs; test: as above; type: binding, mouse; details: N-terminal rhodamine B or fluorescein conjugate, fluorescence
Description: [The procedure below names another cell line; the source lists this cell line under the same test.] as §2, §3

[7] = test system: CT26 CSCs; test: M13 phage display selection, secondary CT26 CSC HP-library; type: binding, mouse; details: from Table 1
Description: (§4) The M13 PhD-7 library (NEB, E8100) which contains 10^9 independent clones was purchased from New England Biolabs Inc. 10^13 plaque firming units (pfus) of M13 PhD-7 phages in 10 mL DMEM were pre-adsorbed by cancer cells in a T75 flask twice, each for 1 hour. Subsequently, the supernatant was transferred to a T25 flask containing 5×10^6 CSCs and incubated for 1 hour. The unbound and weakly associated phages were removed by centrifugation and suspension three times in DMEM/0/2% BSA. The cell pellet was suspended in 1 mL PBS containing 10^9 E. coli ER2738 and incubated in a shaker for 1 hour. Then 10 mL LB/5 mM MgCl2 was added. After being cultured over-night at 37° C., the cells were removed by centrifugation and phages in the supernatant were titrated. The aforementioned selection procedures were carried out for three rounds for EMT6 and PANC-1 to obtain the primary EMT6 CSC homing peptide (HP)- and PANC-1 CSC HP-library, respectively. Subsequently, M13 plaques were picked up to prepare the DNA for sequencing. […]
(§5) The primary CSC HP-library was selected directly once by either CT26 or Hepa1-6 CSCs to test the bias of CSC HP affinities to different kinds of cancers. […] Two new peptide sequences, KIYTTLD (CSC HP-9) (SEQ ID NO: 11) and NLQPPAY (CSC HP-12) (SEQ ID NO: 12), were read in the ESC unbound fraction (CSC HP-library) (Table 1).

[8] = test system: Hepa1-6 CSCs; test: M13 phage display selection, secondary Hepa1-6 CSC HP-library; type: binding, mouse; details: from Table 1
Description: as §4, §5

[9] = Glycan microarray analysis, major signal pattern; type: binding; details: biotin-CSC HP, Cy3-streptavidin
Description: as §1
Glycan Array 100 microchips (Cat. # GA-Glycan-100) were purchased from RayBiotech and were processed following the manufacturer's instruction with some modifications. Briefly, after blocking with 400 μL Sample Diluent (Item E) at room temperature for 30 minutes, the biotin conjugated CSC HPs were diluted to 1 μg/400 μL with Sample Diluent, and hybridization reactions were carried out at room temperature for 2 hours. After washing, 400 μL of 1×Cy3-conjugated streptavidin was added to each well. […] After thorough washing, the slide was drained completely, and the fluorescent signals on it were read by laser scanner Axon GenePix. […]
The CSC HPs developed could distinguish CSCs from CCs, and this phenomenon was found cross-species between human and mouse. […] The biotin-CSC HPs trapped on the chips were explored with Cy3-conjugated streptavidin, and the fluorescent signals on it were read by a laser scanner. […] Two malignancy and metastasis glycan markers, glycan 63 (Fuc-α-1,2-Gal-β-1,4-(Fuc-α-1,3)-GlcNAc-β-, also called Lewis Y epitope) and glycan 69 (Neu5Ac-α-2,6-Gal-β-1,3-(Neu5Ac-α-2,6)-GalNAc-β-), were also detected. […]

[10] = test system: mouse embryonic stem cell (mESC); test: M13 phage display selection, secondary CSC/ESC HP-library (ESC bound fraction); type: binding
Description: as §4, §5

| Substance | binding to glycan 19 [1] | binding to glycan 26 [1] | detection in parallel CC experiments [2] | association with PANC-1 tumorospheres [3] | association with CT26 CSCs [4] | association with EMT6 CSCs [5] | association with Hepa1-6 CSCs [6] | signal on glycan 69 [1] | other results |
| --- | --- | --- | --- | --- | --- | --- | --- | --- | --- |
| GLAPFNA (Cancer Stem Cell Targeting Peptide) [CSC HP-11, synthetic peptide that targets cancer stem cells] |  |  | not detectable | definitely associated | specifically associated | specifically associated | specifically associated | higher signals |  |
| GMMSSPP (Cancer Stem Cell Targeting Peptide) [CSC HP-2, synthetic peptide that targets cancer stem cells] |  |  | not detectable | definitely associated | specifically associated | specifically associated | specifically associated |  |  |
| GPKVTIW (Cancer Stem Cell Targeting Peptide) [CSC HP-hP1, synthetic peptide that targets cancer stem cells] |  | bound strongly and specifically |  |  |  |  |  |  | major pattern of glycan microarray signals [9]: Globo series; binding / signal on glycan 63 [1]: higher signals; also recorded: bound more strongly |
| GPSASRN (Cancer Stem Cell Targeting Peptide) [CSC HP-10, synthetic peptide that targets cancer stem cells] |  |  | not detectable | definitely associated | specifically associated | specifically associated | specifically associated | higher signals |  |
| GSPVMSW (Cancer Stem Cell Targeting Peptide) [CSC HP-hP2, synthetic peptide that targets cancer stem cells] |  |  |  |  |  |  |  | higher signals |  |
| KIYTTLD (Cancer Stem Cell Targeting Peptide) [CSC HP-9, synthetic peptide that targets cancer stem cells] | bound strongly |  | not detectable | definitely associated | specifically associated | specifically associated | specifically associated | higher signals |  |
| SQPTWMF (Cancer Stem Cell Targeting Peptide) [CSC HP-1, synthetic peptide that targets cancer stem cells] |  | bound strongly and specifically | not detectable | definitely associated | specifically associated | specifically associated | specifically associated |  | major pattern of glycan microarray signals [9]: Globo series; binding / signal on glycan 63 [1]: higher signals; also recorded: bound more strongly; enrichment in the ESC bound fraction [10]: further enriched |
| YHQVKPH (Cancer Stem Cell Targeting Peptide) [CSC HP-hP3, synthetic peptide that targets cancer stem cells] |  |  |  |  |  |  |  | higher signals |  |

Second part, led by results:

| binding to glycan 19 [1] | binding to glycan 26 [1] | Substance | detection in parallel CC experiments [2] | association with PANC-1 tumorospheres [3] | association with CT26 CSCs [4] | association with EMT6 CSCs [5] | association with Hepa1-6 CSCs [6] | signal on glycan 69 [1] | other results |
| --- | --- | --- | --- | --- | --- | --- | --- | --- | --- |
| bound strongly |  | ATYGNLW (Cancer Stem Cell Targeting Peptide) [CSC HP-5, synthetic peptide that targets cancer stem cells] |  |  |  |  |  |  |  |
|  | weakly bound | ELTPLTL (Cancer Stem Cell Targeting Peptide) [CSC HP-8, synthetic peptide that targets cancer stem cells] | not detectable | definitely associated | specifically associated | specifically associated | specifically associated |  | bias of CSC HP affinity to CT26 CSCs [7]: more specific |
|  | weakly bound | FSGGGNH (Cancer Stem Cell Targeting Peptide) [CSC HP-3, synthetic peptide that targets cancer stem cells] | not detectable | definitely associated | specifically associated | specifically associated | specifically associated |  | bias of CSC HP affinity to Hepa1-6 CSCs [8]: more specific |
| bound strongly |  | HGGVRLY (Cancer Stem Cell Targeting Peptide) [CSC HP-7, synthetic peptide that targets cancer stem cells] |  |  |  |  |  |  |  |
| bound strongly |  | YHMPALM (Cancer Stem Cell Targeting Peptide) [CSC HP-6, synthetic peptide that targets cancer stem cells] |  |  |  |  |  |  |  |
